These results are taken from patent publication US9809623B2, “α4β7 peptide monomer and dimer antagonists” (Protagonist Therapeutics, Inc., priority 2014, dated 2017).

The target of series [1] is T1, α4β7 (Homo sapiens, UniProt P13612+P26010). The series is described as follows: α4β7-MAdCAM Cell Adhesion Assay (RPMI 8866 human cells). Type of series: cell-based. Further details: host or cells: RPMI 8866 human B lymphoblastoid cells. Particulars: Table 3-B, Potency (α4β7); range classes; read-out: α4β7 cell (Hu) IC50. A digest of the protocol: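 Adhesion read-out: MTT absorbance at 570 nm minus no-cell wells, after three washes. Plates coated with rh MAdCAM-1/Fc received peptide dilutions plus 200,000 RPMI 8866 cells in Mn2+ (1 mM)-supplemented DMEM, 0.1% BSA, HEPES pH 7, incubated 30-45 min, 37 °C.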

In series [2] the target is T2, α4β1 (Homo sapiens, UniProt P05556+P13612, DEL729-798).
T2 construct: purchased R&D Systems 5668-A4
The series is described as follows: α4β1-VCAM Competition ELISA. Format: binding. The conditions noted are these: Table 3-B, Selectivity (α4β1); range classes; read-out: α4β1 ELISA IC50. A digest of the protocol:
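ELISA plates were coated with VCAM-1 Fc at 400 ng/well. Peptide dilutions (highest final 100 μM) and 60 nM α4β1 were incubated 2 h at 37 °C in pH 7.6 Tris buffer containing 1 mM Mn2+ or Mg2+. Integrin retained on the plate was detected by 9F10 antibody, then HRP secondary, with TMB absorbance at 450 nm.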

Series [3] deals with T3, α4β7 (Mus musculus, UniProt P26011+Q00651).
T3 construct: host or cells: TK1 mouse T cells
The series is described as follows: α4β7 Cell Adhesion Assay (Mouse), TK1 cells. Format: cell-based. The conditions noted are these: Table 3-B, Potency (α4β7); range classes; read-out: α4β7 cell(MU) IC50. As to the method:
TK1 cells (ATCC # ATCC-CRL-2396) were cultured in RPMI 1640 with 2 mM L-glutamine adjusted to contain 1.5 g/L sodium bicarbonate, 4.5 g/L glucose, 10 mM HEPES, and 1.0 mM sodium pyruvate (ATCC#30-2001) and supplemented with 0.1 mM non-essential amino acids, (ATCC #30-2116) 0.05 mM 2-mercaptoethanol (Invitrogen #21985) and 10% serum (Fetal Bovine Serum, Invitrogen #16140-071), and Penicillin-Streptomycin (Invitrogen #15140-122) at 100 units of penicillin and 100 μg of streptomycin per ml. The cells were washed two times in DMEM medium (ATCC #30-2002) supplemented with 0.1% BSA, 10 mM HEPES pH 7 and 1 mM MnCl2. The cells were re-suspended in supplemented DMEM medium at a density of 4×10^6 cells/ml.
A Nunc MaxiSorp plate was coated with Recombinant human MAdCAM-1 Fc Chimera (R&D #6065-MC) at 200 ng per well in 100 μl per well in 1×PBS and incubated at 4° C. overnight. The solution was then removed by shaking, blocked with 250 ul per well PBS containing 1% BSA, and incubated at 37° C. for 1 hr. The solution was removed by shaking. DATK 32 (anti-mouse α4β7) and peptides were diluted by serial dilution in a final volume of 50 ul per well (2× concentration). To each well, 50 ul of cells (200,000 cells) are added and the plate is incubated at 37° C., 5% CO2 for 30-45 min to allow cell adhesion. The plate was manually washed three times with supplemented DMEM, 100 ul per wash. After the final wash, 100 ul/well of supplemented DMEM and […] of MTT reagent (ATTC cat#30-1010K) was added to each well. Wells were incubated at 37° C. with 5% CO2 for 2-3 hrs until purple precipitate was visible. 100 μl of Detergent Reagent (ATTC cat#30-1010K) was added to each well. The plate was then wrapped with Para film to prevent evaporation, and left overnight at room temperature in the dark. The plate was shaken for 5 min and the absorbance at 570 nm was measured. To calculate the dose response, the absorbance value of control wells not containing cells was subtracted from each test well.

A short description of series [4]: Simulated Intestinal Fluid (SIF) Stability Assay. Particulars: pig, simulated intestinal fluid (SIF) with 1% porcine pancreatin, pH 6.5, Table 3-B; > means experiment was stopped at that time and half life was not reached; read-out: Stabilty SIF t1/2. Format: in vitro ADME, porcine. The procedure, abridged: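 Intestinal stability: percent peptide remaining over time, by LC-MS/MS peak-area ratio to internal standard, fitted to first-order decay for half-life. Conditions: 22 μM peptide, 1% pancreatin in pH 6.5 blank FASSIF, 37 °C.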

Series [5] deals with T1, α4β7. The series is described as follows: PBMC Memory T Cell Adhesion Assay, adhesion to MAdCAM-1. Type of series: cell-based. The conditions noted are these: Table 3-B; range classes; read-out: PBMC IC50. As to the method: Fresh CD4+/CD45RO+ memory T cells were isolated from human peripheral blood mononuclear cell (PBMC) donors by Aragen Bioscience Inc. (Morgan Hill, Calif.). The assay plate was prepared using IgG Fc capture antibody (donkey anti human) immobilized at 500 ng/well in 50 mM sodium bicarbonate buffer, pH 9.5, ON, 4C onto a Greiner Fluotrac plate (100 ul per well). The plate was rinsed two time with Blocking Buffer (25 mM Tris HCl, pH7.5, 150 mM NaCl, 1.5% BSA, 0.05% Tween), and blocked with Blocking Buffer for 2 hours at 37 C or 5 hours at RT using 200 ul per well. The Blocking Buffer was removed and either MAdCAM-1 or VCAM-1 at 400 ng/well in Blocking Buffer was added and the plate incubated overnight at 4C (100 ul per well). The plate was washed two times with Blocking Buffer, and rinsed once with 200 ul Binding Media (DMEM phenol red free, 10 mM HEPES, 1×Na pyruvate, 1× Glutamine, and supplemented with 1 mM MnCl2 prior to use). To prepare cells, approximately 25 million CD4+/CD45RO+ memory T cells were counted by trypan blue exclusion using a haemocytometer to determine viability and cell count. The cells were transferred to a 50 ml conical tube, and centrifuged at 1200 rpm for 10 minute. The media was aspirated and the cell pellet resuspended in 15 ml Binding Media. The cells were centrifuged again and resuspended in the appropriate amount of Binding Media to be used for assays (50 ul of cells per well at 2× the final density). To each well, and equal volume (50 ul) of test compound was added and the plate was incubated for 1.5 hours at 37 C, 5% CO2. Each well was rinsed 3× with 150 ul per well of Binding Media. […] The plate was incubated at 37 C, 5% CO2, for 45 minutes. The plate was protected from light by using black adhesive seals. Fluorescence intensity was measured using a Molecular Devices Gemini EM Fluorescent Plate Reader (Ex 485/Em530, Bottom Read, Reading Sensitivity=20). IC50 curves are generated using Graph Pad Prism and the curves analyzed using analyzed using a non-linear regression (four parameters) algorithm. The log (concentration) versus RFU (Ex485/Em530) was plotted to determine IC50 values.

For series [6], the system named is cell types in human whole blood. Briefly: FACS binding specificity in human whole blood. Type of series: cell-based. Particulars: 1 nM, 1 mM MnCl2. How it is done:
To further evaluate the selectivity of Peptide X in human blood, the fluorescent dye Alexa 647 was conjugated to Peptide X at the same position used for attaching biotin. […] Heparinized human whole blood was supplemented with 1 mM MnCl2, and stained with the Peptide X-Alexa 647 conjugate or biotinylated vedolizumab for 1 hour at room temperature. The samples were fixed (red blood cells lysed) and washed. The vedolizumab samples were stained separately with streptavidin Alexa 647 for stain for 30 minutes at room temperature. FACS analysis was used to assess binding of the peptide or vedolizumab to a broad panel of cell types including NK cells, basophils, monocytes, eosinophils, neutrophils, CD4 naïve T cells, CD4 memory T cells, CD8 naïve T cells, CD8 memory T cells, and B cells. […] The binding specificity for vedolizmab shown in Table 7 is also very similar to that reported in the literature (Soler et al, JPET 330:864-875, 2009).

Numbered stars: 1 amine (or outer) side, 2 acyl side, 3 side chain; on linkers, the order of the positions; unused ones are H or OH. Bridge positions count the residues as written; N and C are the ends. Square brackets hold non-standard residues; d marks the D form. Peptide text beside a SMILES is read from it. I, II: the chains in the order shown. Phe(4-tBu) = CC(C)(C)c1ccc(C[C@H](N)C(=O)O)cc1; 2Nal = N[C@@H](Cc1ccc2ccccc2c1)C(=O)O; Diglycolyl = O=C(COCC(=O)[*:2])[*:1]; NMeR = CN[C@@H](CCCNC(=N)N)C(=O)O; Tic = O=C(O)[C@@H]1Cc2ccccc2CN1; β3hE = N[C@@H](CCC(=O)O)CC(=O)O; Pen = CC(C)(S)[C@H](N)C(=O)O Some results are limits rather than exact numbers.

T3 sequence (Q00651 34-1039 limits assumed): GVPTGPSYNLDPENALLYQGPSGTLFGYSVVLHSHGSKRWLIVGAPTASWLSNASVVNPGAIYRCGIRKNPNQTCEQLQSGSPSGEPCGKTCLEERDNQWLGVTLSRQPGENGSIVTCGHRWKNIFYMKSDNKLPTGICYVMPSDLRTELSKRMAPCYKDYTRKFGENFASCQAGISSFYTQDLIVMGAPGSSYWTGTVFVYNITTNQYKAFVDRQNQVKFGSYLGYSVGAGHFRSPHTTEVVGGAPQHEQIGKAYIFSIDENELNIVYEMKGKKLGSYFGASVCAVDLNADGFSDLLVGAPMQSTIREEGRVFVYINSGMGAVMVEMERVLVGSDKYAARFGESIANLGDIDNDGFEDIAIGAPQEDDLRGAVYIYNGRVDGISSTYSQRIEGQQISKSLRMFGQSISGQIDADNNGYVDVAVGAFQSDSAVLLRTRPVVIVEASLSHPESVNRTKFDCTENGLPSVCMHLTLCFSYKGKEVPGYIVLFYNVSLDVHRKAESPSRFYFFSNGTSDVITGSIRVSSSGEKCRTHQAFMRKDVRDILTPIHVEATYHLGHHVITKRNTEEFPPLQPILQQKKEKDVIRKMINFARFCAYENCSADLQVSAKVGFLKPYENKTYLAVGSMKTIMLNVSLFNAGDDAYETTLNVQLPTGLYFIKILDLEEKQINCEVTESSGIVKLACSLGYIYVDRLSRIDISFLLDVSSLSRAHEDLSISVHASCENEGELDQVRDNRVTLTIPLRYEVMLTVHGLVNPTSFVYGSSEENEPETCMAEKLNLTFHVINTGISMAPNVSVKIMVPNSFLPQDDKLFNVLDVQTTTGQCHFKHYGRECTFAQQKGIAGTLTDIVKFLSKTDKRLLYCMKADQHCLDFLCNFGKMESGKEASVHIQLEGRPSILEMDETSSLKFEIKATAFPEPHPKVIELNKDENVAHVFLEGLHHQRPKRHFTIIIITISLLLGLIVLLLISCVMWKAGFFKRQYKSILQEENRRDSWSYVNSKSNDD
T3 sequence (P26011 20-806): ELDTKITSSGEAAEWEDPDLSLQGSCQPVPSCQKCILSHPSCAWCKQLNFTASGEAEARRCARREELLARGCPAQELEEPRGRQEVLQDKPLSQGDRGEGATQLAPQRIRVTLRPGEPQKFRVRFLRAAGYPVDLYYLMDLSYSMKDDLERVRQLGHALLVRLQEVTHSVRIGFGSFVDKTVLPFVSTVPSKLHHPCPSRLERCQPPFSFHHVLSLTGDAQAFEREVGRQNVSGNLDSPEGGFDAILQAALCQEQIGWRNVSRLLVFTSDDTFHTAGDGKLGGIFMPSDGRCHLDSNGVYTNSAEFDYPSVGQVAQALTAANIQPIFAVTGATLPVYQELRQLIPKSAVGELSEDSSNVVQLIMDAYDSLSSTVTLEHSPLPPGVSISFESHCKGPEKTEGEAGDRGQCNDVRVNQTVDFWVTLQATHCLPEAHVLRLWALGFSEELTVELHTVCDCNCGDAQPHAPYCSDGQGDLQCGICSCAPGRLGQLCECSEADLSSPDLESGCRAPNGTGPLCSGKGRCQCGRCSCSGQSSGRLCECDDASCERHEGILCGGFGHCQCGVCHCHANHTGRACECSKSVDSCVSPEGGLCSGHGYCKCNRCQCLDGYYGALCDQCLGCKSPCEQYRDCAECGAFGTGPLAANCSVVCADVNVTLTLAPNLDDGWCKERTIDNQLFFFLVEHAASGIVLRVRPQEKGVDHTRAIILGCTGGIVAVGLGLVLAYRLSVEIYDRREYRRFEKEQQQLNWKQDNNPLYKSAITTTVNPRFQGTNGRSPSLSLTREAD
T2 sequence (P13612 34-977 limits assumed, stated change not applied): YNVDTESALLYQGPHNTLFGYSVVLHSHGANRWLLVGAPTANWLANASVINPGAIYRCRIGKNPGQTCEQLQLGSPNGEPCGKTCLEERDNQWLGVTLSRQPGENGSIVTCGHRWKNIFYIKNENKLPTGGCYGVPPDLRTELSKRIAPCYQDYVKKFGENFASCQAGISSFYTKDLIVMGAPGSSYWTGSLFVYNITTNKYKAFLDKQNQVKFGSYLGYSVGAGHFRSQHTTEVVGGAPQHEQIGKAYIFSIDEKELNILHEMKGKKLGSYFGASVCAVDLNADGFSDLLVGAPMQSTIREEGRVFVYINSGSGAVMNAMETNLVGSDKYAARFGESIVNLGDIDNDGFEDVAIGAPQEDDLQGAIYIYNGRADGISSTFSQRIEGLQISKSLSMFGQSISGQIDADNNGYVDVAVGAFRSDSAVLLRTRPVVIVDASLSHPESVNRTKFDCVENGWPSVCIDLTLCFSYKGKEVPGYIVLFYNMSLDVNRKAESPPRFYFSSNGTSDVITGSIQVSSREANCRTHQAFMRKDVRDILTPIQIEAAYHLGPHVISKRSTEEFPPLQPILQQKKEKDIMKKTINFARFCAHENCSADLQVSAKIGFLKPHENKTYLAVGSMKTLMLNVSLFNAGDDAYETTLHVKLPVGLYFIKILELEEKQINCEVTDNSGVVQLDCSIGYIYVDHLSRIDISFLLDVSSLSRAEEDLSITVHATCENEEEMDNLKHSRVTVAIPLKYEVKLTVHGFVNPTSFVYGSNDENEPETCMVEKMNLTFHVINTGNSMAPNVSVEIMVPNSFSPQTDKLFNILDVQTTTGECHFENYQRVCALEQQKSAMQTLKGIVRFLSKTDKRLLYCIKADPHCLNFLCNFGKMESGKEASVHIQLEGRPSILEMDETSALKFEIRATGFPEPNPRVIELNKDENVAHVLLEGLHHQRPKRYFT
T2 sequence (P05556 21-728 limits assumed, stated change not applied): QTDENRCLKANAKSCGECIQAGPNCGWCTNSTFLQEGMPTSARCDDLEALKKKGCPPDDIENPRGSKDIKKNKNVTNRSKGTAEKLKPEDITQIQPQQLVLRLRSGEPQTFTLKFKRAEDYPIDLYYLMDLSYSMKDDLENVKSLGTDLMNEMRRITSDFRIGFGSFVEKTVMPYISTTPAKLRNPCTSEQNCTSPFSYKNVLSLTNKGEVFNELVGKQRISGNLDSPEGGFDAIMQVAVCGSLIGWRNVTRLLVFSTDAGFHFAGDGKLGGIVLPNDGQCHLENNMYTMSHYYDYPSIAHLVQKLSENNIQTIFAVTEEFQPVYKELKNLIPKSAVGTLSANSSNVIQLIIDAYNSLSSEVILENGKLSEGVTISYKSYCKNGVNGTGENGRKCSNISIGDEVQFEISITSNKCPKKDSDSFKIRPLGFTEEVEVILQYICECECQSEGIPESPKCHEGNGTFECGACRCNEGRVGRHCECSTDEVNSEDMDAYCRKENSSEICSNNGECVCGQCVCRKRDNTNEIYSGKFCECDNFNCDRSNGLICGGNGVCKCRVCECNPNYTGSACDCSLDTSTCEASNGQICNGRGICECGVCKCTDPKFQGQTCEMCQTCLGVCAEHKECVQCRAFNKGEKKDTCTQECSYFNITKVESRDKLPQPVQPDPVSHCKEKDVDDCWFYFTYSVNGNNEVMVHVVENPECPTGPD

For the compound `CC(=O)N[C@@H]1C(=O)N(C)[C@@H](CCCNC(=N)N)C(=O)N[C@@H](CO)C(=O)N[C@@H](CC(=O)O)C(=O)N[C@@H]([C@@H](C)O)C(=O)N[C@@H](CC(C)C)C(=O)N[C@H](C(=O)N[C@@H](Cc2c[nH]c3ccccc23)C(=O)N[C@@H](CCC(=O)O)CC(=O)O)C(C)(C)SSC1(C)C` [compound 146] (Ac-[Pen][NMeR]SDTL[Pen]W[β3hE]-OH; disulfide 1-7), the IC50 in series [1] is 50 to 100 nM; in series [2], 1000 to 10000 nM; in series [3], 50 to 100 nM.

Turning to `CC(=O)N[C@@H]1C(=O)N(C)[C@@H](CCCNC(=N)N)C(=O)N[C@@H](CO)C(=O)N[C@@H](CC(=O)O)C(=O)N[C@@H]([C@@H](C)O)C(=O)N[C@@H](CC(C)C)C(=O)N[C@H](C(=O)N2Cc3ccccc3C[C@H]2C(=O)N[C@@H](CCC(=O)O)CC(N)=O)C(C)(C)SSC1(C)C` [compound 154] (Ac-[Pen][NMeR]SDTL[Pen][Tic][β3hE]-NH2; disulfide 1-7), the IC50 fell in the range of 100 to 500 nM in series [1], 1000 to 10000 nM in series [2] and 1000 to 10000 nM in series [3].

Consider `CC(=O)N[C@@H]1C(=O)N(C)[C@@H](CCCNC(=N)N)C(=O)N[C@@H](CO)C(=O)N[C@@H](CC(=O)O)C(=O)N[C@@H]([C@@H](C)O)C(=O)N[C@@H](CC(C)C)C(=O)N[C@H](C(=O)N[C@@H](Cc2ccc3ccccc3c2)C(=O)N[C@@H](CCC(=O)O)CC(N)=O)C(C)(C)SSC1(C)C` [compound 155] (Ac-[Pen][NMeR]SDTL[Pen][2Nal][β3hE]-NH2; disulfide 1-7), for which the IC50 in series [1] was in the range of 25 to 50 nM; in series [2] it was 1000 to 10000 nM; in series [3] it was 25 to 50 nM.

Regarding `CC(=O)N[C@@H]1C(=O)N(C)[C@@H](CCCNC(=N)N)C(=O)N[C@@H](CO)C(=O)N[C@@H](CC(=O)O)C(=O)N[C@@H]([C@@H](C)O)C(=O)N[C@@H](CC(C)C)C(=O)N[C@H](C(=O)N[C@@H](Cc2ccc(C(C)(C)C)cc2)C(=O)N[C@@H](CCC(=O)O)CC(N)=O)C(C)(C)SSC1(C)C` [compound 165] (Ac-[Pen][NMeR]SDTL[Pen][Phe(4-tBu)][β3hE]-NH2; disulfide 1-7), the half-life at 22 μM in series [4] was more than 3 h. Besides, the IC50 in series [1] was 10 to 25 nM; in series [5] it was 100 to 500 nM.

As to `CC(=O)N[C@@H]1C(=O)N(C)[C@@H](CCCNC(=N)N)C(=O)N[C@@H](CO)C(=O)N[C@@H](CC(=O)O)C(=O)N[C@@H]([C@@H](C)O)C(=O)N[C@@H](CC(C)C)C(=O)N[C@H](C(=O)N[C@@H](Cc2ccc(C(C)(C)C)cc2)C(=O)N[C@@H](CCC(=O)O)CC(=O)N[C@H](CCCCNC(=O)CN(CC(=O)NCCCC[C@@H](NC(=O)C[C@H](CCC(=O)O)NC(=O)[C@H](Cc2ccc(C(C)(C)C)cc2)NC(=O)[C@H]2NC(=O)[C@H](CC(C)C)NC(=O)[C@H]([C@@H](C)O)NC(=O)[C@H](CC(=O)O)NC(=O)[C@H](CO)NC(=O)[C@H](CCCNC(=N)N)N(C)C(=O)[C@@H](NC(C)=O)C(C)(C)SSC2(C)C)C(N)=O)C(=O)CCN)C(N)=O)C(C)(C)SSC1(C)C` [compound 166], the IC50 in series [1] and in series [5] was less than 10 nM in each case.

As for `CC(=O)N[C@@H]1C(=O)N(C)[C@@H](CCCNC(=N)N)C(=O)N[C@@H](CO)C(=O)N[C@@H](CC(=O)O)C(=O)N[C@@H]([C@@H](C)O)C(=O)N[C@@H](CC(C)C)C(=O)N[C@H](C(=O)N[C@@H](Cc2ccc(C(C)(C)C)cc2)C(=O)N[C@@H](CCC(=O)O)CC(=O)N[C@H](CCCCNC(=O)COCC(=O)NCCCC[C@@H](NC(=O)C[C@H](CCC(=O)O)NC(=O)[C@H](Cc2ccc(C(C)(C)C)cc2)NC(=O)[C@H]2NC(=O)[C@H](CC(C)C)NC(=O)[C@H]([C@@H](C)O)NC(=O)[C@H](CC(=O)O)NC(=O)[C@H](CO)NC(=O)[C@H](CCCNC(=N)N)N(C)C(=O)[C@@H](NC(C)=O)C(C)(C)SSC2(C)C)C(=O)O)C(=O)O)C(C)(C)SSC1(C)C` [compound 168] (I: Ac-[Pen][NMeR]SDTL[Pen][Phe(4-tBu)][β3hE][dK]-OH / II: Ac-[Pen][NMeR]SDTL[Pen][Phe(4-tBu)][β3hE][dK]-OH; disulfide I:1-I:7, II:1-II:7; linker I:10-II:10 via Diglycolyl), the IC50 in series [1] and in series [5] was less than 10 nM throughout.

For the compound vedolizumab [reference compound], in series [6], the “Percent positive staining, Basophils” value is 86%; the “Percent positive staining, CD4 memory T cells” value came out at 22%; the “Percent positive staining, CD4 naïve T cells” value is given as 55%; the “Percent positive staining, CD8 memory T cells” value is on record as 36%. Further, in series [6], the “Percent positive staining, CD8 naïve T cells” value is recorded as 53%; the “Percent positive staining, CD19+ B cells” value stood at 85%; the “Percent positive staining, Eosinophils” value is 91%; the “Percent positive staining, Monocytes” value is 7%. Besides, in series [6], the “Percent positive staining, NK cells CD16+ 56+” value stood at 42% and the “Percent positive staining, Neutrophils” value is 0.45%.
